# Tested on: NCI-H841 complex tumor spheroid viability
# Test: Anticancer human tumor NCI-H841 cell line growth inhibition;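 further: spheroids exposed to compounds for 7 days before readout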;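 on viability, T/C: 100% = DMSO vehicle control wells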
# Conditions: for IC50: curve of first compound; for viability, T/C: stronger effect = lower value
# In short: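 Single agents and combinations were tested on spheroids built from tumor cells plus HUVEC and hMSC, at half-log dilutions starting at or near clinical Cmax, else 10 microM; final DMSO 0.25% (v/v).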
# [1] = second compound 30 pM, first compound 0.00949 µM
# [2] = second compound 30 pM, first compound 0.03 µM
# [3] = second compound 30 pM, first compound 0.0949 µM
# [4] = second compound 30 pM, first compound 0.3 µM
# [5] = second compound 30 pM, first compound 0.949 µM
# [6] = second compound 30 pM, first compound 3 µM
# [7] = second compound 94.9 pM, first compound 0.00949 µM
# [8] = second compound 94.9 pM, first compound 0.03 µM
# [9] = second compound 94.9 pM, first compound 0.0949 µM
# [10] = second compound 94.9 pM, first compound 0.3 µM
# [11] = second compound 94.9 pM, first compound 0.949 µM
# [12] = second compound 94.9 pM, first compound 3 µM
# [13] = second compound 0.0003 µM, first compound 0.00949 µM
# [14] = second compound 0.0003 µM, first compound 0.03 µM
# [15] = second compound 0.0003 µM, first compound 0.0949 µM
# [16] = second compound 0.0003 µM, first compound 0.3 µM
# [17] = second compound 0.0003 µM, first compound 0.949 µM
# [18] = second compound 0.0003 µM, first compound 3 µM
# [19] = second compound 0.000949 µM, first compound 0.00949 µM
# [20] = second compound 0.000949 µM, first compound 0.03 µM
# [21] = second compound 0.000949 µM, first compound 0.0949 µM
# [22] = second compound 0.000949 µM, first compound 0.3 µM
# [23] = second compound 0.000949 µM, first compound 0.949 µM
# [24] = second compound 0.000949 µM, first compound 3 µM
# [25] = second compound 0.003 µM, first compound 0.00949 µM
# [26] = second compound 0.003 µM, first compound 0.03 µM
# [27] = second compound 0.003 µM, first compound 0.0949 µM
# [28] = second compound 0.003 µM, first compound 0.3 µM
# [29] = second compound 0.003 µM, first compound 0.949 µM
# [30] = second compound 0.003 µM, first compound 3 µM
compound,measurement,setting,value
CNCc1ccc(-c2cc(-c3nc(-c4ccc(S(=O)(=O)C(C)C)cc4)cnc3N)on2)cc1 + COc1cc2c(cc1O)CCNC21CSC2c3c(OC(C)=O)c(C)c4c(c3C(COC1=O)N1C(O)C3Cc5cc(C)c(OC)c(O)c5C(C21)N3C)OCO4,IC50,second compound 30 pM,205 nM
same,IC50,second compound 94.9 pM,136 nM
same,IC50,second compound 0.0003 µM,< 9.49 nM
same,IC50,second compound 0.000949 µM,< 9.49 nM
same,IC50,second compound 0.003 µM,< 9.49 nM
same,"viability, T/C",[1],97.6%
same,"viability, T/C",[2],99.6%
same,"viability, T/C",[3],86.8%
same,"viability, T/C",[4],31.6%
same,"viability, T/C",[5],7.14%
same,"viability, T/C",[6],1.78%
same,"viability, T/C",[7],93.8%
same,"viability, T/C",[8],92.6%
same,"viability, T/C",[9],66.2%
same,"viability, T/C",[10],13.6%
same,"viability, T/C",[11],2.49%
same,"viability, T/C",[12],1.05%
same,"viability, T/C",[13],44.8%
same,"viability, T/C",[14],28.3%
same,"viability, T/C",[15],7.38%
same,"viability, T/C",[16],1.78%
same,"viability, T/C",[17],1.69%
same,"viability, T/C",[18],0.41%
same,"viability, T/C",[19],2.86%
same,"viability, T/C",[20],2.26%
same,"viability, T/C",[21],1.25%
same,"viability, T/C",[22],0.59%
same,"viability, T/C",[23],0.5%
same,"viability, T/C",[24],0.09%
same,"viability, T/C",[25],0.1%
same,"viability, T/C",[26],0.1%
same,"viability, T/C",[27],0.09%
same,"viability, T/C",[28],0.1%
same,"viability, T/C",[29],0.09%
same,"viability, T/C",[30],0.15%
Cn1ncnc1[C@H]1c2n[nH]c(=O)c3cc(F)cc(c23)N[C@@H]1c1ccc(F)cc1 + COc1cc2c(cc1O)CCNC21CSC2c3c(OC(C)=O)c(C)c4c(c3C(COC1=O)N1C(O)C3Cc5cc(C)c(OC)c(O)c5C(C21)N3C)OCO4,IC50,second compound 30 pM,514 nM
same,IC50,second compound 94.9 pM,252 nM
same,IC50,second compound 0.0003 µM,< 9.49 nM
same,IC50,second compound 0.000949 µM,< 9.49 nM
same,IC50,second compound 0.003 µM,< 9.49 nM
same,"viability, T/C",[1],94%
same,"viability, T/C",[2],91.6%
same,"viability, T/C",[3],86.4%
same,"viability, T/C",[4],71.3%
same,"viability, T/C",[5],26.4%
same,"viability, T/C",[6],1.05%
same,"viability, T/C",[7],85.6%
same,"viability, T/C",[8],76.5%
same,"viability, T/C",[9],66.1%
same,"viability, T/C",[10],51.5%
same,"viability, T/C",[11],11%
same,"viability, T/C",[12],1.19%
same,"viability, T/C",[13],16.7%
same,"viability, T/C",[14],9.8%
same,"viability, T/C",[15],7.64%
same,"viability, T/C",[16],2.97%
same,"viability, T/C",[17],1.63%
same,"viability, T/C",[18],1.27%
same,"viability, T/C",[19],3.02%
same,"viability, T/C",[20],3.35%
same,"viability, T/C",[21],2.75%
same,"viability, T/C",[22],2.82%
same,"viability, T/C",[23],2.18%
same,"viability, T/C",[24],0.23%
same,"viability, T/C",[25],0.11%
same,"viability, T/C",[26],0.12%
same,"viability, T/C",[27],0.12%
same,"viability, T/C",[28],0.1%
same,"viability, T/C",[29],0.1%
same,"viability, T/C",[30],0.19%
O=C(c1cc(Cc2n[nH]c(=O)c3ccccc23)ccc1F)N1CCN(C(=O)C2CC2)CC1 + COc1cc2c(cc1O)CCNC21CSC2c3c(OC(C)=O)c(C)c4c(c3C(COC1=O)N1C(O)C3Cc5cc(C)c(OC)c(O)c5C(C21)N3C)OCO4,IC50,second compound 30 pM,4580 nM
same,IC50,second compound 94.9 pM,3050 nM
same,IC50,second compound 0.0003 µM,< 94.9 nM
same,IC50,second compound 0.000949 µM,< 94.9 nM
same,IC50,second compound 0.003 µM,< 94.9 nM
same,"viability, T/C",[3],107%
same,"viability, T/C",[4],105%
same,"viability, T/C",[5],101%
same,"viability, T/C",[6],77%
same,"viability, T/C","second compound 30 pM, first compound 9.49 µM",3.12%
same,"viability, T/C","second compound 30 pM, first compound 30 µM",1.74%
same,"viability, T/C",[9],97.5%
same,"viability, T/C",[10],97.8%
same,"viability, T/C",[11],87.4%
same,"viability, T/C",[12],52.1%
same,"viability, T/C","second compound 94.9 pM, first compound 9.49 µM",1.93%
same,"viability, T/C","second compound 94.9 pM, first compound 30 µM",1.27%
same,"viability, T/C",[15],27.4%
same,"viability, T/C",[16],22.1%
same,"viability, T/C",[17],18.2%
same,"viability, T/C",[18],2.51%
same,"viability, T/C","second compound 0.0003 µM, first compound 9.49 µM",1.17%
same,"viability, T/C","second compound 0.0003 µM, first compound 30 µM",0.76%
same,"viability, T/C",[21],3.77%
same,"viability, T/C",[22],4.04%
same,"viability, T/C",[23],2.93%
same,"viability, T/C",[24],0.82%
same,"viability, T/C","second compound 0.000949 µM, first compound 9.49 µM",0.32%
same,"viability, T/C","second compound 0.000949 µM, first compound 30 µM",0.11%
same,"viability, T/C",[27],7.31%
same,"viability, T/C",[28],0.2%
same,"viability, T/C",[29],0.13%
same,"viability, T/C",[30],0.12%
same,"viability, T/C","second compound 0.003 µM, first compound 9.49 µM",0.14%
same,"viability, T/C","second compound 0.003 µM, first compound 30 µM",0.29%
